Results taken from PMC12040169 (PLOS Biology, 2025).
“And” between values parts separate entries of the source, which are not always exact repeats. Equal values may be shown once.

Tests used:
[1] = in vitro; conditions: human, hela cells, % viability
[2] = system: HeLa; conditions: bulk resorufin, single well, 28.5 h, 10 µM, Bulk resorufin fluorescence

Row | SMILES | viability at 28.5 h, 10 µM [1] | % viability [2]
1 | CCN(CC)c1ccc(NC(=O)N2CCN(Cc3ccccc3)CC2)cc1 [CBK155645] | 99.7% | 90.4%
2 | CC(=O)NCc1cccc(-c2cc(C(=O)Nc3ccc4c(c3)OCCO4)cnc2N2CCOCC2)c1 [CBK159355C] | 90.1% | 102%
3 | COc1ccc(C(=O)Nc2ccc(OCC(=O)O)cc2)cc1 [CBK260894] | 91.4% | 85.6%
4 | COc1ccc(C(CC(=O)O)NC(=O)c2ccccc2)cc1 (stereo not drawn) [CBK261121] | 89.3% | 93.9%
5 | O=C(O)CCNc1c(C(=O)O)cnc2ccccc12 [CBK261139] | 83.3% | 89%
6 | COc1ccc(/C=C/C(=O)O)cc1S(=O)(=O)N1CCOCC1 [CBK261247] | 101% | 84.7%
7 | O=C(O)/C=C\C(=O)Nc1ccccc1C#Cc1ccccc1 [CBK261680] | 82.9% | 83.2%
8 | CC1(C)CC(NC(=O)/C=C/C(=O)O)CC(C)(C)N1 [CBK262018] | 88.4% | 90.9%
9 | Cc1ccc(C(=O)NCC(=O)NCC(=O)O)cc1 [CBK262170] | 103% | 91.7%
10 | O=C(O)C(Cc1ccc(O)cc1)N1C(=O)c2ccccc2C1=O (stereo not drawn) [CBK262479] | 84.1% | 80.4%
11 | O=C(O)c1cc(S(=O)(=O)NCc2ccco2)c(Cl)cc1N1CCCCC1 [CBK263409] | 108% | 92.5%
12 | CCN(CC)CCNC(=O)/C(=N\O)c1ccccn1 [CBK264538] | 90.6% | 93.9%
13 | Cn1c(=O)c2c(-c3ccccc3)n(-c3ccc(C(=O)O)cc3)cc2n(C)c1=O [CBK265040] | 84% | 98.4%
14 | O=C(CC1SC(Nc2ccc(O)cc2)=NC1=O)c1ccccc1 (stereo not drawn) [CBK267009] | 98.5% | 89%
15 | O=C(O)C1(c2ccccc2)CCN(S(=O)(=O)c2ccc(F)cc2)CC1 [CBK267571] | 92.9% | 87.8%
16 | O=C(O)CCS(=O)(=O)c1nc(-c2ccccc2)cc(C(F)(F)F)n1 [CBK268832] | 104% | 102%
17 | Cc1nnc(SCC(=O)Nc2ccc(CN3CCOCC3)cc2)s1 [CBK269849] | 96.4% | 112%
18 | O=c1cc(CSc2ccccn2)[nH]c2[nH]n(-c3ccccc3)c(=O)c12 [CBK269895] | 92.7% | 109%
19 | O=C(Cn1c([C@H]2CCCO2)cc2cccnc21)NC1CC1 [CBK282274] | 94.8% | 102%
20 | O=C(Cn1c([C@@H]2CCCO2)cc2cccnc21)N1CCCCCC1 [CBK282285] | 88% | 101%
21 | CC1CCCN(Cc2c([C@H]3CCCO3)[nH]c3ncccc23)C1 (stereo partly drawn) [CBK282287] | 110% | 106%
22 | CC[C@@H](Cn1nc(-c2cccs2)ccc1=O)NC(=O)c1ccco1 [CBK282308] | 94.7% | 87.3%
23 | O=C(NC1CCCCC1)[C@H]1C=CCN1C(=O)c1ccc(F)cc1F [CBK282311] | 95% | 97.2%
24 | CC[C@@H](Cn1nc(-c2ccc(F)c(F)c2)ccc1=O)NC(=O)C1CC1 [CBK282313] | 90.6% | 89.3%

Row | SMILES | viability at 28.5 h, 10 µM [1] | % viability [2]
25 | CC(C)[C@H](Cn1nc(C2CC2)ccc1=O)NC(=O)C1CCC1 [CBK282367] | 85.1% | 91.4%
26 | O=C(NCCc1ccccc1)[C@H]1C=CCN1C(=O)c1ccc(F)cc1 [CBK282383] | 89.4% | 96.3% and 92.6%
27 | CC[C@@H](Cn1ncc2ccccc2c1=O)NC(=O)C1CCC1 [CBK282384] | 93.4% | 82%
28 | CC(C)(C)NC(=O)CN1C(=O)[C@H]2CCCN2C(=O)c2ccccc21 [CBK282428] | 89.5% | 107%
29 | O=C(CN1C(=O)[C@H]2CCCN2C(=O)c2ccccc21)NC1CCCC1 [CBK282438] | 112% | 110%
30 | C=CCNC(=O)[C@H]1C=CCN1S(=O)(=O)c1cccc2ccccc12 [CBK282440] | 91% | 102%
31 | COc1cccc(CN2C(=O)[C@H]3CCCN3C(=O)c3ccccc32)c1 [CBK282852] | 108% | 106%
32 | O=C(CN1C(=O)[C@H]2CCCN2C(=O)c2ccccc21)NCC1CC1 [CBK282853] | 87.6% | 88.6%
33 | O=C1[C@@H]2CCCN2C(=O)c2ccccc2N1Cc1ccccc1F [CBK282855] | 93.9% | 106%
34 | O=C1[C@@H]2CCCN2C(=O)c2ccccc2N1Cc1ccc(F)cc1 [CBK282856] | 117% | 99.5%
35 | CCC(C)NC(=O)Cn1c([C@H]2CCCO2)cc2cccnc21 (stereo partly drawn) [CBK282874] | 88.1% | 100%
36 | CC(CCN1CC2C[C@@H](O)CN2C[C@H]1C)c1ccccc1 (stereo partly drawn) [CBK283010] | 82.4% | 89.2%
37 | C[C@H](Cn1c(C(F)(F)F)cc2cccnc21)NC(=O)C1CC1 [CBK283227] | 93.7% | 89.4%
38 | O=C(C1CC1)N1CCC[C@H]1Cn1nc(-c2cccs2)ccc1=O [CBK284250] | 76.7% | 80.9%
39 | Cc1oc(C2CC2)cc1C(=O)N[C@H](C)Cn1nnc2ccccc21 [CBK284258] | 78.1% | 80.8%
40 | O=C(NC[C@@H]1CCCN(C(=O)c2cscn2)C1)c1cccs1 [CBK284263] | 85.7% | 93.5%
41 | CC(C)(C)OC(=O)N1CCC[C@H]([C@H](O)c2ccc(F)cc2)C1 [CBK284298] | 92.3% | 80.1%
42 | CC[C@H](Cn1ncc2ccccc2c1=O)NC(=O)c1ccco1 [CBK284300] | 78.6% | 86.8%
43 | CC[C@H](Cn1ncc2ccccc2c1=O)NC(=O)C1CCCC1 [CBK284302] | 94.2% | 102%
44 | O=C(C1CC1)N1CCC[C@H](Cn2nc(-c3cccs3)ccc2=O)C1 [CBK284314] | 74.7% | 91.8%
45 | O=C(NCCc1ccccc1)[C@@H]1C=CCN1C(=O)C1CC1 [CBK284315] | 93.6% | 81.8%
46 | O=C(NCCc1ccccc1)[C@@H]1C=CCN1C(=O)c1ccco1 [CBK284316] | 93% | 90%
47 | C[C@@H](Cn1nnc2ccccc21)NC(=O)c1ccco1 [CBK284319] | 75.9% | 86.3%
48 | CCS(=O)(=O)N1CC=C[C@H]1C(=O)NCCc1ccccc1 [CBK284325] | 107% | 89.7%

Row | SMILES | viability at 28.5 h, 10 µM [1] | % viability [2]
49 | CC(C)(C)OC(=O)N1CCC[C@@H](CNC(=O)c2cccs2)C1 [CBK284332] | 104% | 90.2%
50 | CC(C)[C@@H](Cn1c(=O)oc2ccccc21)NC(=O)c1ccco1 [CBK284531] | 94.1% | 86.1%
51 | C[C@H](Cn1c(=O)oc2ccccc21)NC(=O)c1cccs1 [CBK284532] | 85% | 90.7%
52 | C[C@@H](Cn1c(=O)oc2ccccc21)NC(=O)Cc1cccs1 [CBK284533] | 92.9% | 79.8%
53 | C[C@H](Cn1nc2c(cc1=O)CCCCC2)NC(=O)c1cccs1 [CBK284545] | 101% | 85.9%
54 | C[C@@H]1CN2CCCC2CN1Cc1cccs1 (stereo partly drawn) [CBK284550] | 85.6% | 98.3%
55 | C[C@@H]1CN2CCCC2CN1CC1=Cc2ccccc2OC1 (stereo partly drawn) [CBK284552] | 88.6% | 103%
56 | C[C@@H]1CN2C[C@H](O)CC2CN1Cc1ccccc1C(F)(F)F (stereo partly drawn) [CBK284556] | 80.7% | 100%
57 | CS(=O)(=O)N1C2CCC(C2)[C@H]1COc1cccc(C(F)(F)F)c1 (stereo partly drawn) [CBK284596] | 98.7% | 107%
58 | O=C(C1CC1)N1C2CCC(C2)[C@H]1COc1ccc(F)cc1 (stereo partly drawn) [CBK284597] | 95% | 100%
59 | CCOC(=O)c1[nH]c(C)c(CN2CC3CCCN3C[C@@H]2C)c1C (stereo partly drawn) [CBK285043] | 110% | 105%
60 | C[C@H]1CN2C[C@H](O)CC2CN1Cc1cc(Br)cs1 (stereo partly drawn) [CBK285044] | 103% | 94%
61 | COc1ccc2c(CN3CC4CCCN4C[C@H]3C)cn(C)c2c1 (stereo partly drawn) [CBK285164] | 92.4% | 84%
62 | O=C(Cn1c([C@H]2CCCO2)cc2cccnc21)NC1CCCC1 [CBK285219] | 88.8% | 85.4%
63 | O=C(c1cccnc1)N1C2CCC(C2)[C@H]1COc1ccc(F)cc1 (stereo partly drawn) [CBK285268] | 90.2% | 87.8%
64 | C[C@@H]1CN2CCCC2CN1Cc1cc(F)cc(F)c1 (stereo partly drawn) [CBK285405] | 96.1% | 105%
65 | C[C@@H]1CN2CCCC2CN1Cc1ccsc1 (stereo partly drawn) [CBK285411] | 110% | 109%
66 | C[C@@H]1CN2C[C@H](O)CC2CN1Cc1cccc(C(F)(F)F)c1 (stereo partly drawn) [CBK285413] | 91.7% | 88.1%
67 | C=CCn1cc(CN2C[C@@H]3CCCN3C[C@H]2CCSC)c(C)n1 [CBK285420] | 87.6% | 106%
68 | COCCn1c(C)cc(CN2CC3CCCN3C[C@@H]2C)c1C (stereo partly drawn) [CBK285421] | 83.8% | 101%
69 | CCOc1ccc(CN2CC3CCCN3C[C@H]2C)cc1 (stereo partly drawn) [CBK285422] | 87.8% | 100%
70 | COCCn1cc(CN2CC3CCCN3C[C@H]2C)c2ccccc21 (stereo partly drawn) [CBK285427] | 95.7% | 106%
71 | Cc1cc(CN2CC3CCCN3C[C@@H]2C)c(C)n1-c1ccccn1 (stereo partly drawn) [CBK285431] | 87% | 98.1%
72 | CC(C)n1cc(CN2CC3C[C@@H](O)CN3C[C@H]2C)c2ccccc21 (stereo partly drawn) [CBK285437] | 107% | 88.8%
